Experimental findings from patent US20130129695A1, “METHODS FOR TREATING OR INHIBITING INFECTION BY CLOSTRIDIUM DIFFICILE” (priority 2010, published 2013) are described below.

Test [1] relates to CD3299 riboswitch. In words: In-line probing assay, binding of ligands to CD3299 riboswitch. Also noted: species or system Clostridium difficile. How it is done:
An in-line probing assay, as described in Regulski and Breaker, “In-line probing analysis of riboswitches”, (2008), Methods in Molecular Biology, Vol 419, pp 53-67, the contents of which are incorporated by reference, is used to estimate the dissociation binding constants for the interaction of each of the ligands described herein with a CD3299 riboswitch amplified from Clostridium difficile. Precursor mRNA leader molecules are prepared by in vitro transcription from templates generated by PCR and [5′-^32P]-labeling using methods described previously (Regulski and Breaker, In-line probing analysis of riboswitches (2008), Methods in Molecular Biology Vol 419, pp 53-67). Approximately 5 nM of labeled RNA precursor is incubated for 41 hours at 25° C. in 20 mM MgCl2, 50 mM Tris/HCl (pH 8.3 at 25° C.) in the presence or absence of a fixed concentration of each ligand. Binding to the CD3299 riboswitches are measured 100 ? M. In-line cleavage products are separated on 10% polyacrylamide gel electrophoresis (PAGE), and the resulting gel is visualized using a Molecular Dynamics Phosphorimager. […]
In-line probing exploits the natural ability of RNA to self-cleave at elevated pH and metal ion concentrations (pH≈8.3, 25 mM MgCl2) in a conformation-dependent manner. […] These ligand-dependent changes in RNA cleavage can be readily detected by denaturing gel electrophoresis. […]

Test [2] has as its system C. difficile strain ATCC 700057 (MMX 4381). As to the kind of experiment: Minimum Inhibitory Concentration (MIC) assay. Type of test: cell-based, Clostridium difficile. To be noted: Clostridioides difficile, ATCC700057; C. difficile ATCC 700057 (MMX 4381); growth 18-24 hours at 37° C. The protocol: (§1) The MIC assays are carried out in a final volume of 100 μL in 96-well clear round-bottom plates according to methods established by the Clinical Laboratory Standards Institute (CLSI). Briefly, test compound suspended in 100% DMSO (or another suitable solubilizing buffer) is added to an aliquot of media appropriate for a given pathogen to a total volume of 50 μL. This solution is serially diluted by 2-fold into successive tubes of the same media to give a range of test compound concentrations appropriate to the assay. To each dilution of test compound in media is added 50 ? L of a bacterial suspension from an overnight culture growth in media appropriate to a given pathogen. Final bacterial inoculum is approximately 10^5-10^6 CFU/well. […] Ciprofloxacin is used as an antibiotic-positive control in each screening assay. Each of the bacterial cultures that are available from the American Type Culture Collection (ATCC, www.atcc.org) is identified by its ATCC number.

Test [3] deals with C. difficile strain MMX3581 (clinical). In words: Minimum Inhibitory Concentration (MIC) assay. The format is cell-based, Clostridium difficile. As to conditions: Clostridioides difficile, growth 18-24 hours at 37° C. The protocol:
as §1

Some results are limits rather than exact numbers.

With `Cc1cc2nc3c(=O)[nH]c(=O)nc-3n(C[C@H](O)[C@H](O)[C@H](O)COP(=O)(O)O)c2cc1C` [FMN, Flavin mononucleotide], the “binding to the CD3299 riboswitch (in words)” value in test [1] was “does not bind”.
`Cc1cc2nc3c(=O)[nH]c(=O)nc-3n(CCNCc3ccccc3)c2cc1C` [Compound 2]: the MIC in test [2] and in test [3] was no more than 64 µg/mL in each case.
Turning to `Cc1cc2nc3c(=O)[nH]c(=O)nc-3n(CCNCc3ccc(Cl)cc3)c2cc1C` [Compound 1], the MIC in test [2] and in test [3] was no more than 64 µg/mL in each case.
